ChEMBL document CHEMBL4376805, “Plasmodium Purine Metabolism and Its Inhibition by Nucleoside and Nucleotide Analogues” (J Med Chem, 2019)

Experiments:
Plasmodium falciparum [1] = assay: Antimalarial activity against Plasmodium falciparum D6 assessed as reduction in parasite growth preincubated for 48 hrs followed by addition of [3H]Hypoxanthine and measured after 48 hrs by [3H]Hypoxanthine incorporation assay; assay type: functional, organism-based
Plasmodium falciparum [2] = assay: Antimalarial activity against chloroquine/ pyrimethamine-resitant Plasmodium falciparum W2 assessed as reduction in parasite growth preincubated for 48 hrs followed by addition of [3H]Hypoxanthine and measured after 48 hrs by [3H]Hypoxanthine incorporation assay; assay type: functional, organism-based
[3] = biological target: T1, Purine nucleoside phosphorylase (Plasmodium falciparum, UniProt Q8T9Z7)
T1 sequence (Q8T9Z7 whole entry): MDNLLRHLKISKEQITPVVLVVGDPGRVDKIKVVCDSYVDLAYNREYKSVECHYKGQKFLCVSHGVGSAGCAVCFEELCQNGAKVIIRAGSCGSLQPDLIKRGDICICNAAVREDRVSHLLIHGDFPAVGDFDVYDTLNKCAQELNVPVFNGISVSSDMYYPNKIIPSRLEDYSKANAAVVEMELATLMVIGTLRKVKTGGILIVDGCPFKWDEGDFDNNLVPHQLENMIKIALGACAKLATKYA
Description: Inhibition of Plasmodium falciparum His-tagged PNP assessed as inhibitor constant for enzyme-inhibitor-substrate complex formation

[4] = biological target: T2, Purine nucleoside phosphorylase (Homo sapiens, UniProt P00491)
T2 sequence (P00491 whole entry): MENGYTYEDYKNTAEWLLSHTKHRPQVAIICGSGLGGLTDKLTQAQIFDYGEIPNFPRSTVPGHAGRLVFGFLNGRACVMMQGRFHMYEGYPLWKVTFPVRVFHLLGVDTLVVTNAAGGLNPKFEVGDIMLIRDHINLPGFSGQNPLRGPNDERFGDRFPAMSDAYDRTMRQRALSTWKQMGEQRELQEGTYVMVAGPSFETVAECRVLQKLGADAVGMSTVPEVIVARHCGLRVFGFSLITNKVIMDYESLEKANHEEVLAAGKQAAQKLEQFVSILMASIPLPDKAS
Description: Inhibition of human PNP assessed as inhibitor constant for enzyme-inhibitor-substrate complex formation

Adenosine deaminase [5] = biological target: T3, Adenosine deaminase (Plasmodium falciparum, UniProt Q86GS5); assay: Inhibition of Plasmodium falciparum N-terminal thrombin cleavable His6-tagged ADA expressed in Escherichia coli BL21 assessed as reduction in formation of inosine using adenosine as substrate
T3 sequence (Q86GS5 whole entry): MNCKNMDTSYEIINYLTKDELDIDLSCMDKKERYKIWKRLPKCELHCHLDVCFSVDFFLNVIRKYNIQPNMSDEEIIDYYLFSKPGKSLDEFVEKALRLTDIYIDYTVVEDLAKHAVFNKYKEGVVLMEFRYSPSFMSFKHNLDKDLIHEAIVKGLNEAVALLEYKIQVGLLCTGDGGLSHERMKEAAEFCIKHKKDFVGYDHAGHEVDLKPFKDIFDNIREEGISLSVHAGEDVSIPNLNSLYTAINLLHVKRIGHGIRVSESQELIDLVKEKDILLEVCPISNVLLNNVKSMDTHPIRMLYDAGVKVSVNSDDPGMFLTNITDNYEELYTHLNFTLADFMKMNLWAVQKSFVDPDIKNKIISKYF

Adenosine deaminase [6] = biological target: T3, Adenosine deaminase; assay: Inhibition of Plasmodium falciparum N-terminal thrombin cleavable His6-tagged ADA expressed in Escherichia coli BL21 assessed as equilibrium dissociation constant by measuring reduction in formation of inosine using adenosine as substrate
Adenosine deaminase [7] = biological target: T3, Adenosine deaminase; assay: Inhibition of Plasmodium falciparum ADA assessed as reduction in formation of ammonia using adenosine as substrate incubated for 15 mins by spectrophotometric analysis
Plasmodium falciparum [8] = assay: Antimalarial activity against synchronized Plasmodium falciparum K1 ring form infected in human erythrocytes assessed as reduction in parasite growth after 72 hrs by Hoechst 33258 staining based fluorescence assay; assay type: functional, organism-based; settings: K1, 72 h
[9] = Inhibition of Plasmodium vivax HGPRT using Prib-PP as substrate by Hanes-plot based method
[10] = Inhibition of Plasmodium falciparum HGXPRT using Prib-PP as substrate by Hanes-plot based method
[11] = Inhibition of Plasmodium falciparum HGXPRT expressed in Escherichia coli BL21 (DE3) assessed as inhibitor constant for enzyme-inhibitor-substrate complex formation using [5'-14C]IMP as substrate by scintillation counting method
Plasmodium falciparum [12] = assay: Antimalarial activity against synchronized Plasmodium falciparum ring stage form assessed as reduction in [2,8-3H]Hypoxanthine incorporation incubated for 48 hrs followed by addition of [2,8-3H]Hypoxanthine and measured after 24 hrs by liquid scintillation counting method; assay type: functional, organism-based
Plasmodium falciparum [13] = assay: Antimalarial activity against Plasmodium falciparum; assay type: functional; settings: read-out: ID50 (the source's name)
[14] = biological target: T4, Hypoxanthine-guanine phosphoribosyltransferase (Homo sapiens, UniProt P00492)
T4 sequence (P00492 whole entry): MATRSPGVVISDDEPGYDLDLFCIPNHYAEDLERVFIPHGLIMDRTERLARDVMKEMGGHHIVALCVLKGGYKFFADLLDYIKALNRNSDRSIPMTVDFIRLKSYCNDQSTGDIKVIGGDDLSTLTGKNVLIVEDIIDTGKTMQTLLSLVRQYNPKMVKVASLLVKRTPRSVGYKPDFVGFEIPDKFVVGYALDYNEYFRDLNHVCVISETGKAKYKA
Description: Inhibition of human HGPRT using Prib-PP as substrate by Hanes-plot based method

Plasmodium falciparum [15] = assay: Antimalarial activity against multi drug-resistant Plasmodium falciparum K1 assessed as reduction in parasite growth [3H]Hypoxanthine incorporation assay; assay type: functional; settings: read-out: ID50 (the source's name)
Plasmodium falciparum [16] = assay: Antimalarial activity against Plasmodium falciparum FCQ-27 isolate infected in erythrocytes assessed as reduction in [G-3H]Hypoxanthine incorporation incubated for 24 hrs followed by addition of [G-3H]Hypoxanthine and measured after 18 to 20 hrs by scintillation counting method; assay type: functional
[17] = biological target: T1, Purine nucleoside phosphorylase; remark: listed apart in the source
Description: Inhibition of Plasmodium falciparum His-tagged PNP assessed as inhibitor constant for enzyme-inhibitor complex formation

[18] = biological target: T2, Purine nucleoside phosphorylase; remark: listed apart in the source
Description: Inhibition of human PNP assessed as inhibitor constant for enzyme-inhibitor complex formation

[19] = Inhibition of Plasmodium falciparum N-terminal His6-tagged HGXPRT using Prib-PP as substrate by Hanes-plot based method
[20] = biological target: T4, Hypoxanthine-guanine phosphoribosyltransferase; assay: Inhibition of human N-terminal His6-tagged HGPRT using Prib-PP as substrate by Hanes-plot based method

## CCOC(=O)[C@H](Cc1ccccc1)NP(=O)(CCO[C@@H](Cn1cnc2c(=O)[nH]cnc21)C(=O)OC)N[C@@H](Cc1ccccc1)C(=O)OCC
Plasmodium falciparum [1]
  IC50: 50000 nM
Plasmodium falciparum [2]
  IC50: 50000 nM

## Nc1nc2c([C@@H]3N[C@H](CO)[C@@H](O)[C@H]3O)c[nH]c2c(=O)[nH]1
[3]
  Ki: 0.9 nM
[4]
  Ki: 29 nM

## OC[C@H]1O[C@@H](n2cnc3c2N=CNC[C@H]3O)[C@H](O)[C@@H]1O [COFORMYCIN]
Adenosine deaminase [5]
  Ki: 0.68 nM
Adenosine deaminase [6]
  Ki: 0.08 nM
Adenosine deaminase [7]
  Ki: 0.25 nM

## Nc1nc(N)c2ncn(C[C@@H](CO)OCP(=O)(O)O)c2n1
Plasmodium falciparum [8]
  IC50: 2100 nM

## Nc1nc2c(ncn2[C@@H]2CN(C(=O)CCP(=O)(O)O)C[C@H]2OC[C@@H](O)P(=O)(O)O)c(=O)[nH]1
[9]
  Ki: 8 nM
[10]
  Ki: 7 nM

## Nc1nc(N)c2ncn(C[C@H](CO)OCP(=O)(O)O)c2n1
Plasmodium falciparum [8]
  IC50: 15000 nM

## CCOC(=O)[C@H](Cc1ccccc1)NP(=O)(CCO[C@@H](Cn1cnc2c(=O)[nH]c(N)nc21)C(=O)OC)N[C@@H](Cc1ccccc1)C(=O)OCC
Plasmodium falciparum [1]
  IC50: 50000 nM
Plasmodium falciparum [2]
  IC50: 50000 nM

## Nc1nccc2c1ncn2C[C@@H](CO)OCP(=O)(O)O
Plasmodium falciparum [8]
  IC50: 290 nM

## OC[C@H]1O[C@@H](n2cnc3c2NC=NC[C@@H]3O)[C@H](O)[C@@H]1O
Adenosine deaminase [7]
  Ki: 0.007 nM

## CCOC(=O)[C@H](Cc1ccccc1)NP(N)(=O)CCO[C@H](CO)Cn1cnc2c(=O)[nH]c(N)nc21 (stereo partly drawn)
Plasmodium falciparum [1]
  IC50: > 250000 nM
Plasmodium falciparum [2]
  IC50: > 250000 nM

## O=c1[nH]cnc2c([C@@H]3N[C@H](COP(=O)(O)O)[C@@H](O)[C@H]3O)c[nH]c12
[11]
  Ki: 1 nM

## Nc1ncnc2c1c(I)cn2[C@@H]1O[C@H](CO)[C@@H](O)[C@H]1O [IODOTUBERCIDIN]
Plasmodium falciparum [12]
  IC50: 2000 nM

## Nc1ncnc2c1ncn2[C@@H]1C[C@@H](OP(=O)(O)OC[C@H]2O[C@@H](n3cc(F)c(=O)[nH]c3=O)C[C@@H]2O)[C@H](CO)O1
Plasmodium falciparum [13]
  IC50: 5000 nM

## Nc1nc2c(ncn2C[C@H](CO)n2cc(P(=O)(O)O)nn2)c(=O)[nH]1
[9]
  Ki: 1000 to 6000 nM
[10]
  Ki: 1000 to 6000 nM
[14]
  Ki: 100 nM

## O=[N+]([O-])c1ccc(CSc2ncnc3c2ncn3[C@@H]2O[C@H](CO)[C@@H](O)[C@H]2O)cc1 [NITROBENZYLMERCAPTOPURINE RIBONUCLEOSIDE]
Plasmodium falciparum [15]
  IC50: 4200 nM

## Nc1ncnc2c1ccn2[C@@H]1O[C@H](CO)[C@@H](O)[C@H]1O [TUBERCIDIN]
Plasmodium falciparum [16]
  IC37: 0.7 µM

## O=c1[nH]cnc2c(CN3C[C@@H](CO)[C@H](O)C3)c[nH]c12
[17]
  Ki: 1.5 nM
[3]
  Ki: 0.68 nM
[18]
  Ki: 1700 nM
[4]
  Ki: 80 nM

## Nc1nc2c(ncn2C[C@@H](CO)OCCP(=O)(O)O)c(=O)[nH]1
[19]
  Ki: 100 nM
[20]
  Ki: 600 nM

## Nc1nccc2c1ncn2C[C@H](CO)OCP(=O)(O)O
Plasmodium falciparum [8]
  IC50: 100000 nM

## Nc1ncnc2c1ncn2C[C@@H](CO)OCP(=O)(O)O
Plasmodium falciparum [8]
  IC50: 180 nM
